pIC50: −log10 of the molar value.
System: DU-145 multicell spheroids with HUVEC/MSC, viability
Experiment: Anticancer human tumor DU-145 cell line growth inhibition [IpAb];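 also: spheroids exposed to agents for seven days before measurement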;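 as to viability, T/C: percent of DMSO vehicle control viability so 100% = untreated level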
Conditions: for pIC50: curve of first compound; for viability, T/C: stronger effect = lower value
Outline: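 Spheroids of 60% malignant cells, 25% HUVEC and 15% MSC were exposed to targeted agents combined with ipatasertib or abemaciclib. Doses started at or near clinical Cmax (10 microM when unknown) and fell in half-log steps.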

Question: With `Cn1cnc2c(F)c(Nc3ccc(Br)cc3Cl)c(C(=O)NOCCO)cc21` + CC(C)NCC(C(=O)N1CCN(c2ncnc3c2C(C)CC3O)CC1)c1ccc(Cl)cc1 as the compound, how does the pIC50 (second compound 0.1 µM) read?
Answer: 6.80

Question: And the pIC50 (second compound 0.316 µM)?
Answer: > 8.02

Question: And the pIC50 (second compound 1 µM)?
Answer: > 8.02

Question: And the pIC50 (second compound 3.16 µM)?
Answer: > 8.02

Question: And the pIC50 (second compound 10 µM)?
Answer: > 8.02

Question: What about the viability, T/C (second compound 0.1 µM, first compound 0.00949 µM) of the same compound?
Answer: 64.7%

Question: And the viability, T/C (second compound 0.1 µM, first compound 0.03 µM)?
Answer: 62.4%

Question: And the viability, T/C (second compound 0.1 µM, first compound 0.0949 µM)?
Answer: 52.3%

Question: What about the viability, T/C (second compound 0.1 µM, first compound 0.3 µM) of the same compound?
Answer: 41.3%

Question: And the viability, T/C (second compound 0.1 µM, first compound 0.949 µM)?
Answer: 46.5%

Question: What about the viability, T/C (second compound 0.1 µM, first compound 3 µM) of the same compound?
Answer: 34.9%

Question: And the viability, T/C (second compound 0.316 µM, first compound 0.00949 µM)?
Answer: 44.7%

Question: What about the viability, T/C (second compound 0.316 µM, first compound 0.03 µM) of the same compound?
Answer: 41.9%

Question: And the viability, T/C (second compound 0.316 µM, first compound 0.0949 µM)?
Answer: 38.8%

Question: And the viability, T/C (second compound 0.316 µM, first compound 0.3 µM)?
Answer: 33.1%

Question: And the viability, T/C (second compound 0.316 µM, first compound 0.949 µM)?
Answer: 32.9%

Question: And the viability, T/C (second compound 0.316 µM, first compound 3 µM)?
Answer: 25%

Question: And the viability, T/C (second compound 1 µM, first compound 0.00949 µM)?
Answer: 31.4%

Question: And the viability, T/C (second compound 1 µM, first compound 0.03 µM)?
Answer: 30.4%

Question: What about the viability, T/C (second compound 1 µM, first compound 0.0949 µM) of the same compound?
Answer: 27.6%

Question: And the viability, T/C (second compound 1 µM, first compound 0.3 µM)?
Answer: 23%

Question: What about the viability, T/C (second compound 1 µM, first compound 0.949 µM) of the same compound?
Answer: 21.5%

Question: What about the viability, T/C (second compound 1 µM, first compound 3 µM) of the same compound?
Answer: 19.2%

Question: And the viability, T/C (second compound 3.16 µM, first compound 0.00949 µM)?
Answer: 18.2%

Question: And the viability, T/C (second compound 3.16 µM, first compound 0.03 µM)?
Answer: 17%

Question: And the viability, T/C (second compound 3.16 µM, first compound 0.0949 µM)?
Answer: 16.5%

Question: What about the viability, T/C (second compound 3.16 µM, first compound 0.3 µM) of the same compound?
Answer: 14.3%

Question: What about the viability, T/C (second compound 3.16 µM, first compound 0.949 µM) of the same compound?
Answer: 14.5%

Question: What about the viability, T/C (second compound 3.16 µM, first compound 3 µM) of the same compound?
Answer: 12%

Question: What about the viability, T/C (second compound 10 µM, first compound 0.00949 µM) of the same compound?
Answer: 16.2%

Question: And the viability, T/C (second compound 10 µM, first compound 0.03 µM)?
Answer: 13.7%

Question: And the viability, T/C (second compound 10 µM, first compound 0.0949 µM)?
Answer: 13.3%

Question: And the viability, T/C (second compound 10 µM, first compound 0.3 µM)?
Answer: 11.8%

Question: And the viability, T/C (second compound 10 µM, first compound 0.949 µM)?
Answer: 11.4%

Question: And the viability, T/C (second compound 10 µM, first compound 3 µM)?
Answer: 10.4%

Source: PubChem BioAssay AID2060335 (Molecular Pharmacology Branch, DTP, NCI, 2025)
